Experimental data from US20250296953A1, “3,4-THIAZOLO-STEROIDS AND METHODS OF MAKING AND USING THE SAME” (Arkansas State University - Jonesboro, priority 2018, published 2025).
Where two headings read alike, the source gives them in different places.

Experiments:
SK-MEL-25 = assay: Melanoma cytotoxicity assay (resazurin); type: cell-based; details: SK-MEL-25 melanoma cells, resazurin
How it was run: (§1)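 Readout: resazurin fluorescence (ex 544, em 590 nm) after 6 h dye incubation, following 24 h compound exposure of ~4000 cells/well. Viability = background-subtracted signal over DMSO wells; IC50 by sigmoidal curve fitting.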

SK-MEL-28 = assay: Melanoma cytotoxicity assay (resazurin); type: cell-based; details: SK-MEL-28 melanoma cells, resazurin
How it was run: as §1

SF-295 = assay: NCI 60 one dose screen; type: cell-based, human; details: one dose; CNS Cancer; SF-295
glioblastoma (SF-295) = assay: NCI 60 five dose screen
[1] = tested on: 60 different human tumor cell lines; details: for GI50 / TGI: five dose
[2] = 24 hours with compound, concentration not given
[3] = A549/ATCC (Non-small Cell Lung Cancer)
[4] = EKVX (Non-small Cell Lung Cancer)
[5] = HOP-62 (Non-small Cell Lung Cancer)
[6] = HOP-92 (Non-small Cell Lung Cancer)
[7] = MDA-MB-231/ATCC (Breast Cancer)
[8] = NCI-H23 (Non-small Cell Lung Cancer)
[9] = NCI-H226 (Non-small Cell Lung Cancer)
[10] = NCI-H322M (Non-small Cell Lung Cancer)
[11] = NCI-H460 (Non-small Cell Lung Cancer)
[12] = NCI-H522 (Non-small Cell Lung Cancer)

For “(1S,2R,13R,14S,18S)-7-(3-fluoroanilino)-2,18-dimethyl-6-thia-8-azapentacyclo[11.7.0.02,10.05,9.014,18]icosa-5(9),7,10-trien-17-one [IIa.8]”, the “SK-MEL-25 (% inhibition)” value (SK-MEL-25; [2]) was 88%, the IC50 (SK-MEL-25; 24 hours, read-out: SK-MEL-25 (IC50)) was 10000 nM and the “SK-MEL-28 (% inhibition)” value (SK-MEL-28; [2]) was 90%. The IC50 (SK-MEL-28; 24 hours) was over 20000 nM, the “Growth Percent” value (SF-295) was −18.79% and the GI50 (glioblastoma (SF-295); SF-295 (CNS Cancer), five dose) was 1190 nM. The TGI (glioblastoma (SF-295); SF-295 (CNS Cancer), five dose) was 2.97E−6, the GI50 (glioblastoma (SF-295); glioblastoma SF-295) was 1190 nM and the CC50 (glioblastoma (SF-295); read-out: LC50, SF-295 (CNS Cancer), five dose) was 7370 nM. It also gave a CC50 [1] of over 100000 nM, a GI50 ([1]; 786-0 (Renal Cancer)) of 1430 nM and a TGI ([1]; 786-0 (Renal Cancer)) of 2.83E−6. For the same substance, the GI50 ([1]; A498 (Renal Cancer)) was 2160 nM, the TGI ([1]; A498 (Renal Cancer)) was 6.77E−6 and the GI50 [1, 3] was 2580 nM. The TGI [1, 3] was 7.50E−6, the GI50 ([1]; ACHN (Renal Cancer)) was 1780 nM and the TGI ([1]; ACHN (Renal Cancer)) was 3.24E−6. The GI50 ([1]; BT-549 (Breast Cancer)) was 1540 nM, the TGI ([1]; BT-549 (Breast Cancer)) was 3.62E−6 and the GI50 ([1]; CAKI-1 (Renal Cancer)) was 1990 nM. It also gave a TGI ([1]; CAKI-1 (Renal Cancer)) of 5.73E−6, a GI50 ([1]; CCRF-CEM (Leukemia)) of 1900 nM and a TGI ([1]; CCRF-CEM (Leukemia)) of over 1.00E−4. The GI50 ([1]; COLO 205 (Colon Cancer)) was 2160 nM, the TGI ([1]; COLO 205 (Colon Cancer)) was 4.81E−6 and the GI50 ([1]; DU-145 (Prostate Cancer)) was 1930 nM. It also gave a TGI ([1]; DU-145 (Prostate Cancer)) of 4.87E−6, a GI50 [1, 4] of 2500 nM and a TGI [1, 4] of 1.85E−5. For the same substance, the GI50 ([1]; HCC-2998 (Colon Cancer)) was 3550 nM, the TGI ([1]; HCC-2998 (Colon Cancer)) was 1.46E−5 and the GI50 ([1]; HCT-15 (Colon Cancer)) was 1580 nM. For the same substance, the TGI ([1]; HCT-15 (Colon Cancer)) was 4.08E−6, the GI50 ([1]; HCT-116 (Colon Cancer)) was 1590 nM and the TGI ([1]; HCT-116 (Colon Cancer)) was 3.24E−6. For the same substance, the GI50 ([1]; HL-60(TB) (Leukemia)) was 2730 nM, the TGI ([1]; HL-60(TB) (Leukemia)) was 8.00E−6 and the GI50 [1, 5] was 2070 nM. For the same substance, the TGI [1, 5] was 5.34E−6, the GI50 [1, 6] was 2250 nM and the TGI [1, 6] was 4.17E−6. It also gave a GI50 ([1]; HS 578T (Breast Cancer)) of 3140 nM, a TGI ([1]; HS 578T (Breast Cancer)) of over 1.00E−4 and a GI50 ([1]; HT29 (Colon Cancer)) of 1490 nM. The TGI ([1]; HT29 (Colon Cancer)) was 3.51E−6, the GI50 ([1]; IGROV1 (Ovarian Cancer)) was 1890 nM and the TGI ([1]; IGROV1 (Ovarian Cancer)) was 3.83E−6. The GI50 ([1]; K-562 (Leukemia)) was 1860 nM, the GI50 ([1]; KM12 (Colon Cancer)) was 3000 nM and the TGI ([1]; KM12 (Colon Cancer)) was 1.24E−5. It also gave a GI50 ([1]; LOX IMVI (Melanoma)) of 1670 nM, a TGI ([1]; LOX IMVI (Melanoma)) of 3.21E−6 and a GI50 ([1]; M14 (Melanoma)) of 2360 nM. For the same substance, the TGI ([1]; M14 (Melanoma)) was 7.23E−6, the GI50 ([1]; MALME-3M (Melanoma)) was 1940 nM and the TGI ([1]; MALME-3M (Melanoma)) was 5.04E−6. It also gave a GI50 ([1]; MCF7 (Breast Cancer)) of 1370 nM, a TGI ([1]; MCF7 (Breast Cancer)) of 3.28E−6 and a GI50 [1, 7] of 2110 nM. For the same substance, the TGI [1, 7] was 4.59E−6, the GI50 ([1]; MDA-MB-435 (Melanoma)) was 2740 nM and the TGI ([1]; MDA-MB-435 (Melanoma)) was 1.31E−5. The GI50 ([1]; MDA-MB-468 (Breast Cancer)) was 2010 nM, the TGI ([1]; MDA-MB-468 (Breast Cancer)) was 4.18E−6 and the GI50 ([1]; MOLT-4 (Leukemia)) was 1680 nM. It also gave a TGI ([1]; MOLT-4 (Leukemia)) of 2.83E−5, a GI50 [1, 8] of 2270 nM and a TGI [1, 8] of 9.08E−6. The GI50 [1, 9] was 2350 nM, the TGI [1, 9] was 5.70E−6 and the GI50 [1, 10] was 3600 nM. For the same substance, the TGI [1, 10] was 2.89E−6, the GI50 [1, 11] was 2520 nM and the TGI [1, 11] was 5.58E−6. For the same substance, the GI50 [1, 12] was 1630 nM, the TGI [1, 12] was 3.06E−6 and the GI50 ([1]; NCI/ADR-RES (Ovarian Cancer)) was 2810 nM. The TGI ([1]; NCI/ADR-RES (Ovarian Cancer)) was 1.72E−5, the GI50 ([1]; OVCAR-3 (Ovarian Cancer)) was 1720 nM and the TGI ([1]; OVCAR-3 (Ovarian Cancer)) was 3.30E−6. For the same substance, the GI50 ([1]; OVCAR-4 (Ovarian Cancer)) was 2710 nM, the TGI ([1]; OVCAR-4 (Ovarian Cancer)) was over 1.00E−4 and the GI50 ([1]; OVCAR-5 (Ovarian Cancer)) was 2730 nM. The TGI ([1]; OVCAR-5 (Ovarian Cancer)) was 1.80E−5, the GI50 ([1]; OVCAR-8 (Ovarian Cancer)) was 2790 nM and the TGI ([1]; OVCAR-8 (Ovarian Cancer)) was 7.98E−6. The GI50 ([1]; PC-3 (Prostate Cancer)) was 1880 nM and the TGI ([1]; PC-3 (Prostate Cancer)) was 3.87E−6.
